Data reported in patent US10857155B2, “Compounds targeting proteins, compositions, methods, and uses thereof” (BioTheryX, Inc., priority 2017, dated 2020).

Legend:
Format in all cases: cell-based
GSPT1 = target: T1, GSPT1 (Homo sapiens, UniProt P15170); assay: Western blot analysis of GSPT1 protein levels in Jurkat cells; conditions: DMSO = 100.00; for GSPT1 protein level (% of DMSO control) at 0.1 µM: 100 nM compound; for GSPT1 protein level (% of DMSO control) at 1 µM: 1 uM compound
T1 construct: Whole cell extract was prepared with RIPA buffer according to manufacturer's protocol; endogenous in cells; host or cells: Jurkat cells
Description: FIG. 1 represents the activity against CK1α, ikaros, and GPST1 in Jurkat cells, plated in 96 well plates. Cells were pretreated with compounds for 4 h and then lysed and protein levels measure via Western blots. The negative control wells were treated with DMSO. Cells were treated with the indicated compound at the indicated concentration. Compound activity is measured as a decrease in GSPT1 protein levels.
Western Blot Protocol: Cell lines were grown in RPMI 1640 supplemented with streptomycin, penicillin and 10% fetal bovine serum.
Jurkat cells were cultured at approximately 10^6 cells per mL, DMSO or the indicated compound was added to the cells and allowed to incubate for 6-8 h. Whole cell extract was prepared with RIPA buffer according to manufacturer's protocol (Pierce (Dallas, Tex.)). Briefly, ˜2×10^6 cells were washed once in PBS, the cell pellet was resuspended in RIPA buffer and allowed to incubate for 15 min on ice. Cell debris was removed by centrifugation and the cleared whole cell lysate was transferred to a new tube for further analysis.
For western blot analysis, whole cell extracts were separated on 4-12% SDS-polyacrylamide gels, transferred to nitrocellulose and probed with the indicated primary antibodies. Membranes were subsequently washed and probed with the appropriate horseradish peroxidase (HRP)-conjugated secondary antibody. Membranes were subsequently washed and probed with the appropriate IRDye secondary antibodies (LI-COR). The signal was detected using the Odyssey Imaging System (LI-COR).

IL-2 = IL-2 in PBMCs on anti-human CD3 (OKT3) coated plates, Mesoscale analysis; conditions: PBMC, 24 h, relative to DMSO control, read-out: Fold Change IL-2
Description: For the IL-2 analysis, 96 well plates were precoated with 1 μg/mL anti-human CD3 antibody (OKT3, eBioscience Inc., San Diego, Calif.). After washing with PBS, compounds were added (50 μL/well) followed by PBMCs diluted at 3-4 million cells/mL (150 μL/well). Plates were incubated for 24 h and the supernatants collected for Mesoscale IL-2 analysis.
(§1) Compound activity is measured as fold difference from the DMSO control. Compounds 1, 2, and 3 each reduced expression of IL-1-b in LPS-stimulated PBMCs by over 80% at 1 uM, relative to a just under 80% reduction with pomalidomide at 10 μM (FIG. 2).

H1048 cells = assay: Cell viability assay (CellTiter-Glo), H1048 cells; conditions: Homo sapiens, NCI-H1048, 72 h, 3 days; for viability at 1 µM: H1048, 1 μM; for viability at 10 µM: H1048, 10 μM
Description: (§2) Molm-13 cells were cultivated in RPMI-1640 (10% FBS/1% pen-strep) and were plated in white walled 96-well plates at 20,000 cells/well. H1048 cells were cultured in DMEM:F12 media supplemented with 5% fetal bovine serum, insulin, transferrin, sodium selenite, hydrocortisone, estradiol, penicillin and streptomycin, and were plated in white walled 96-well plates at 20,000 cells/well.
(§3) Cells were treated with compound at the indicated concentration or DMSO (control) and the cultures were incubated for 3 days at 37° C. and 5% CO2. Following the incubation period, 100 μL of CellTiterGlow (CTG) reagent (CellTiter-Glo® Luminescent Cell Viability Assay, Promega (Madison, Wis.)) was added to each well. Following a 10 min incubation with shaking, luminescence was measured using a Victor Wallac Luminometer.

IL-6 = IL-6 in LPS-induced PBMCs / CD14+ monocytes, Meso Scale assay
Description: (§4) FIG. 3 represents the activity against IL-6 in CD14, monocytes, plated in 96 well plates and pretreated with Compounds 1, 2, or 3, or pomalidomide, for 1 h and then induced with 100 ng/mL LPS for 18-24 h. Cytokines were measured according to MesoScale protocol. Negative control wells were treated with DMSO. Cells were treated with compound (at the indicated concentrations) or 10 μM pomalidomide. Compound activity was measured as a percentage of LPS-induced activity.
(§5) Either frozen primary blood mononuclear cells (PBMCs) or frozen CD14+ mobilized peripheral blood monocytes were purchased from AllCells (PB003F, Normal Peripheral Blood MNC (Alameda, Calif.)). Cells were quick thawed, washed 1-time with RPMI-1640 (10% FBS/1% Pen-Strep) and plated in 96 well plates at 200,000 cells per well. Cells were pretreated with DMSO only, pomalidomide or the indicated compounds for 1 h and then induced with 100 ng/mL lipopolysaccharide (LPS) for 18-24 h. The supernatant was analyzed for IL-1 beta, IL-6, and TNF-alpha, using Meso Scale assay according to manufacturer's protocol. The negative control wells were treated with DMSO.
as §1

IL-1β = assay: IL-1 beta in LPS-induced PBMCs / CD14+ monocytes, Meso Scale assay
Description: as §4, with “FIG. 2” for “FIG. 3”, “against IL-1-beta” for “against IL-6”, “in CD14” for “in CD14,”, “DMSO.” for “DMSO. Cells were treated with compound (at the indicated concentrations) or 10 μM pomalidomide.”
as §5, §1

Molm-13 cells = assay: Cell viability assay (CellTiter-Glo), Molm-13 cells; conditions: for IC50 / effect on cell viability: Molm-13 cells; for IC50: approximate; for viability at 0.6 µM: MOLM-13, 0.6 μM; for viability at 10 µM: MOLM-13, 10 μM
Description: FIG. 5 represents antiproliferative activity in Molm-13 cells. The cells were incubated with Compound 1, 2, or 3 (at the indicated concentration), DMSO, or pomalidomide. Compound activity was measured based on the signal from remaining viable cells.
as §2, §3

TNF-α = assay: TNF-alpha in LPS-induced PBMCs / CD14+ monocytes, Meso Scale assay
Description: as §4, with “FIG. 4” for “FIG. 3”, “against TNF-alpha” for “against IL-6”, “protocol. The negative” for “protocol. Negative”
as §5, §1

T1 sequence (P15170 whole entry): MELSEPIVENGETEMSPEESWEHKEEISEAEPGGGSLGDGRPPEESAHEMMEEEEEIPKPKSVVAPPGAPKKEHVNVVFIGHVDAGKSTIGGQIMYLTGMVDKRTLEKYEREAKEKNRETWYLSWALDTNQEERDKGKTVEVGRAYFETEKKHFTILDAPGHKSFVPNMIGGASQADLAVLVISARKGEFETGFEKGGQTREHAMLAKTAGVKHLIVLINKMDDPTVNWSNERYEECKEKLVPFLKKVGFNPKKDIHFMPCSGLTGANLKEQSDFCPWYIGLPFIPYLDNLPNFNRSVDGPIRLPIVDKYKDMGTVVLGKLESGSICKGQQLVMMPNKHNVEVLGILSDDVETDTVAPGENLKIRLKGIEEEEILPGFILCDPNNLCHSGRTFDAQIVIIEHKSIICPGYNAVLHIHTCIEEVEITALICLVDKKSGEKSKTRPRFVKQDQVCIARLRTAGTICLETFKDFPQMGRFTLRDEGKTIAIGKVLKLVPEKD

Cc1ccc(NC(=O)NCc2ccc3c(c2)CN([C@H]2CCCC(=O)NC2=O)C3=O)cc1Cl [Compound 1]
GSPT1 protein level (% of DMSO control) at 0.1 µM (GSPT1): 28.6%
GSPT1 protein level (% of DMSO control) at 1 µM (GSPT1): 3.63%
fold induction at 0.1 µM (IL-2): 1.4
viability at 1 µM (H1048 cells): 8.39%
viability at 10 µM (H1048 cells): 3.51%
inhibition at 0.1 µM (IL-6): 55%
inhibition at 0.1 µM (IL-1β): 70%
viability at 0.3 µM (Molm-13 cells; Homo sapiens, 72 h, MOLM-13, 0.3 μM, 3 days): 50%
IC50 (Molm-13 cells; Homo sapiens): ~450 nM
inhibition at 0.1 µM (TNF-α): 75%

Cc1ccc(NC(=O)NCc2ccc3c(c2)CN(C2CCCC(=O)NC2=O)C3=O)cc1 (centres unmarked) [Compound 2]
GSPT1 protein level (% of DMSO control) at 0.1 µM (GSPT1): 134%
GSPT1 protein level (% of DMSO control) at 1 µM (GSPT1): 23%
fold induction at 0.1 µM (IL-2): 1.4
viability at 1 µM (H1048 cells): 28.3%
viability at 10 µM (H1048 cells): 4.93%
inhibition at 0.1 µM (IL-6): 51%
inhibition at 0.1 µM (IL-1β): 78%
viability at 0.4 µM (Molm-13 cells; Homo sapiens, 72 h, MOLM-13, 0.4 μM, 3 days): 50%
IC50 (Molm-13 cells; Homo sapiens): ~800 nM
effect on cell viability (Molm-13 cells; 1 μM (FIG. 5)): reduced cell viability
inhibition at 0.1 µM (TNF-α): 79%

O=C1CCCC(N2Cc3cc(CNC(=O)Nc4cccc(Cl)c4)ccc3C2=O)C(=O)N1 (centres unmarked) [Compound 3]
GSPT1 protein level (% of DMSO control) at 0.1 µM (GSPT1): 95.5%
GSPT1 protein level (% of DMSO control) at 1 µM (GSPT1): 46.8%
fold induction at 0.1 µM (IL-2): 1.4
viability at 1 µM (H1048 cells): 47.1%
viability at 10 µM (H1048 cells): 6.25%
inhibition at 0.1 µM (IL-6): 27%
inhibition at 0.1 µM (IL-1β): 59%
viability at 0.6 µM (Molm-13 cells; Homo sapiens, 72 h, 3 days): 50%
IC50 (Molm-13 cells; Homo sapiens): ~1000 nM
effect on cell viability (Molm-13 cells; 1 μM (FIG. 5)): reduced cell viability
inhibition at 0.1 µM (TNF-α): 59%

CCCNC(=O)NCc1ccc2c(c1)CN([C@H]1CCCC(=O)NC1=O)C2=O [Compound 4, (S)-1-((2-(2,7-dioxoazepan-3-yl)-1-oxoisoindolin-5-yl)methyl)-3-propylurea]
GSPT1 protein level (% of DMSO control) at 0.1 µM (GSPT1): 214%
GSPT1 protein level (% of DMSO control) at 1 µM (GSPT1): 116%
fold induction at 1 µM (IL-2): 1.5
viability at 1 µM (H1048 cells): 103%
viability at 10 µM (H1048 cells): 97.5%
inhibition at 1 µM (IL-6): 33%
inhibition at 1 µM (IL-1β): 39%
inhibition at 1 µM (TNF-α): 44%

Cc1c(Cl)cccc1NC(=O)NCc1ccc2c(c1)CN([C@H]1CCCC(=O)NC1=O)C2=O [Compound 5, (S)-1-(3-chloro-2-methylphenyl)-3-((2-(2,7-dioxoazepan-3-yl)-1-oxoisoindolin-5-yl)methyl)urea]
GSPT1 protein level (% of DMSO control) at 0.1 µM (GSPT1): 80.2%
GSPT1 protein level (% of DMSO control) at 1 µM (GSPT1): 15.7%
fold induction at 1 µM (IL-2): 1.3
viability at 1 µM (H1048 cells): 27.3%
viability at 10 µM (H1048 cells): 2.36%
inhibition at 1 µM (IL-6): 99%
inhibition at 1 µM (IL-1β): 90%
viability at 0.6 µM (Molm-13 cells; Homo sapiens, 72 h, 3 days): 50%
inhibition at 1 µM (TNF-α): 92%

O=C1CCC[C@H](N2Cc3cc(CNC(=O)Nc4ccc(F)c(Cl)c4)ccc3C2=O)C(=O)N1 [Compound 6, (S)-1-(3-chloro-4-fluorophenyl)-3-((2-(2,7-dioxoazepan-3-yl)-1-oxoisoindolin-5-yl)methyl) urea]
GSPT1 protein level (% of DMSO control) at 0.1 µM (GSPT1): 113%
GSPT1 protein level (% of DMSO control) at 1 µM (GSPT1): 37.9%
fold induction at 1 µM (IL-2): 1.3
viability at 1 µM (H1048 cells): 45.7%
viability at 10 µM (H1048 cells): 5.42%
inhibition at 1 µM (IL-6): 77%
inhibition at 1 µM (IL-1β): 64%
viability at 0.7 µM (Molm-13 cells; Homo sapiens, 72 h, MOLM-13, 0.7 μM, 3 days): 50%
inhibition at 1 µM (TNF-α): 65%

Cc1ccc(CC(=O)NCc2ccc3c(c2)CN([C@H]2CCCC(=O)NC2=O)C3=O)cc1Cl [Compound 7, (S)-2-(3-chloro-4-methylphenyl)-N-((2-(2,7-dioxoazepan-3-yl)-1-oxoisoindolin-5-yl)methyl)acetamide]
GSPT1 protein level (% of DMSO control) at 0.1 µM (GSPT1): 83.3%
GSPT1 protein level (% of DMSO control) at 1 µM (GSPT1): 18.5%
fold induction at 1 µM (IL-2): 1
viability at 1 µM (H1048 cells): 44.1%
viability at 10 µM (H1048 cells): 7.25%
inhibition at 1 µM (IL-6): 73%
inhibition at 1 µM (IL-1β): 56%
viability at 1 µM (Molm-13 cells; Homo sapiens, 72 h, MOLM-13, 1 μM, 3 days): 70%
inhibition at 1 µM (TNF-α): 59%

COc1ccc(NC(=O)NCc2ccc3c(c2)CN([C@H]2CCCC(=O)NC2=O)C3=O)cc1Cl [Compound 8, (S)-1-(3-chloro-4-methoxyphenyl)-3-((2-(2,7-dioxoazepan-3-yl)-1-oxoisoindolin-5-yl)methyl)urea]
GSPT1 protein level (% of DMSO control) at 0.1 µM (GSPT1): 52.6%
GSPT1 protein level (% of DMSO control) at 1 µM (GSPT1): 14.9%
fold induction at 1 µM (IL-2): 0.9
viability at 1 µM (H1048 cells): 17.4%
viability at 10 µM (H1048 cells): 4.4%
inhibition at 1 µM (IL-6): 95%
inhibition at 1 µM (IL-1β): 78%
viability at 0.5 µM (Molm-13 cells; Homo sapiens, 72 h, MOLM-13, 0.5 μM, 3 days): 48%
inhibition at 1 µM (TNF-α): 84%

Cc1ccc(CC(=O)NCc2ccc3c(c2)CN([C@H]2CCCC(=O)NC2=O)C3=O)cc1 [Compound 9, (S)—N-((2-(2,7-dioxoazepan-3-yl)-1-oxoisoindolin-5-yl)methyl)-2-(p-tolyl)acetamide]
GSPT1 protein level (% of DMSO control) at 0.1 µM (GSPT1): 128%
GSPT1 protein level (% of DMSO control) at 1 µM (GSPT1): 32.1%
fold induction at 1 µM (IL-2): 1.8
viability at 1 µM (H1048 cells): 57.1%
viability at 10 µM (H1048 cells): 7.27%
inhibition at 1 µM (IL-6): 63%
inhibition at 1 µM (IL-1β): 61%
viability at 10 µM (Molm-13 cells; Homo sapiens, 72 h, 3 days): 99%
inhibition at 1 µM (TNF-α): 64%

O=C1CCC[C@H](N2Cc3cc(CNC(=O)Nc4ccc(C(F)(F)F)c(Cl)c4)ccc3C2=O)C(=O)N1 [Compound 12, (S)-1-(3-chloro-4-(trifluoromethyl)phenyl)-3-((2-(2,7-dioxoazepan-3-yl)-1-oxoisoindolin-5-yl)methyl)urea]
GSPT1 protein level (% of DMSO control) at 1 µM (GSPT1): 18.6%
fold induction at 1 µM (IL-2): 1.5
inhibition at 1 µM (IL-6): 90%
inhibition at 1 µM (IL-1β): 75%
viability at 10 µM (Molm-13 cells; Homo sapiens, 72 h, 3 days): 11%
inhibition at 1 µM (TNF-α): 59%

Nc1cccc2c1C(=O)N(C1CCC(=O)NC1=O)C2=O (centres unmarked) [pomalidomide, reference compound]
reduction of IL-6 levels (IL-6; LPS-stimulated PBMCs, 10 μM (FIG. 3)): under 60%
reduction of expression of IL-1-b (IL-1β; LPS-stimulated PBMCs, 10 μM (FIG. 2)): under 80%
effect on cell viability (Molm-13 cells; 10 μM (FIG. 5)): no effect on cellular viability
reduction of expression of TNF-α (TNF-α; LPS-stimulated PBMCs, 10 μM (FIG. 4)): ~30%
